In one experiment the target is T1, SLC26A9 (Homo sapiens, UniProt Q7LBE3).
T1 sequence (Q7LBE3 1-791): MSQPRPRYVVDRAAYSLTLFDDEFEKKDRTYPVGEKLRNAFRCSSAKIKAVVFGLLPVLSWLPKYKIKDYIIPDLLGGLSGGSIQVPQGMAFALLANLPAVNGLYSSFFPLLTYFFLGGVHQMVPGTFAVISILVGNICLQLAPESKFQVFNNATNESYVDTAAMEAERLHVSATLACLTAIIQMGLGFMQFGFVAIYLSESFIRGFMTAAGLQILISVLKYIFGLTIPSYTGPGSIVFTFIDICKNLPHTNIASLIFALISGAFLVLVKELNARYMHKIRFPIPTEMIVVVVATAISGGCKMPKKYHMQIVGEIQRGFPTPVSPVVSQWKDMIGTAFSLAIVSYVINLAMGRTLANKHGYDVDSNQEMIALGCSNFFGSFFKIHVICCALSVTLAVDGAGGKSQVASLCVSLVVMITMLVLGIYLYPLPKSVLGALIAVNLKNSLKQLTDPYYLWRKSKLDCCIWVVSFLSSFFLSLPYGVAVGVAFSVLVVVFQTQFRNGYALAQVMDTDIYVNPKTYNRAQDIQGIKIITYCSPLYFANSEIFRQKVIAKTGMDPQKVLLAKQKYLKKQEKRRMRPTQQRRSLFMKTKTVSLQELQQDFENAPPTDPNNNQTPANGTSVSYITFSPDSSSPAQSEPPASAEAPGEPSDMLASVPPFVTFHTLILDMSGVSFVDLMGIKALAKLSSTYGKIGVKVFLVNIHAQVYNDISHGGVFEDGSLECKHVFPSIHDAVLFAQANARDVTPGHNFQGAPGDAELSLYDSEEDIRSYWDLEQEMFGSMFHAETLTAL
The experiment in a line: whole cell patch clamp, HEK […] chloride current. Format: cell-based. As to conditions: read-out: % inhibition at 50 μM.

For the next experiment, the target named is wtCFTR (Homo sapiens, UniProt P13569). The experiment in a line: whole cell patch clamp, HEK […] chloride current. Format: cell-based.
Sequence of wtCFTR (P13569 whole entry): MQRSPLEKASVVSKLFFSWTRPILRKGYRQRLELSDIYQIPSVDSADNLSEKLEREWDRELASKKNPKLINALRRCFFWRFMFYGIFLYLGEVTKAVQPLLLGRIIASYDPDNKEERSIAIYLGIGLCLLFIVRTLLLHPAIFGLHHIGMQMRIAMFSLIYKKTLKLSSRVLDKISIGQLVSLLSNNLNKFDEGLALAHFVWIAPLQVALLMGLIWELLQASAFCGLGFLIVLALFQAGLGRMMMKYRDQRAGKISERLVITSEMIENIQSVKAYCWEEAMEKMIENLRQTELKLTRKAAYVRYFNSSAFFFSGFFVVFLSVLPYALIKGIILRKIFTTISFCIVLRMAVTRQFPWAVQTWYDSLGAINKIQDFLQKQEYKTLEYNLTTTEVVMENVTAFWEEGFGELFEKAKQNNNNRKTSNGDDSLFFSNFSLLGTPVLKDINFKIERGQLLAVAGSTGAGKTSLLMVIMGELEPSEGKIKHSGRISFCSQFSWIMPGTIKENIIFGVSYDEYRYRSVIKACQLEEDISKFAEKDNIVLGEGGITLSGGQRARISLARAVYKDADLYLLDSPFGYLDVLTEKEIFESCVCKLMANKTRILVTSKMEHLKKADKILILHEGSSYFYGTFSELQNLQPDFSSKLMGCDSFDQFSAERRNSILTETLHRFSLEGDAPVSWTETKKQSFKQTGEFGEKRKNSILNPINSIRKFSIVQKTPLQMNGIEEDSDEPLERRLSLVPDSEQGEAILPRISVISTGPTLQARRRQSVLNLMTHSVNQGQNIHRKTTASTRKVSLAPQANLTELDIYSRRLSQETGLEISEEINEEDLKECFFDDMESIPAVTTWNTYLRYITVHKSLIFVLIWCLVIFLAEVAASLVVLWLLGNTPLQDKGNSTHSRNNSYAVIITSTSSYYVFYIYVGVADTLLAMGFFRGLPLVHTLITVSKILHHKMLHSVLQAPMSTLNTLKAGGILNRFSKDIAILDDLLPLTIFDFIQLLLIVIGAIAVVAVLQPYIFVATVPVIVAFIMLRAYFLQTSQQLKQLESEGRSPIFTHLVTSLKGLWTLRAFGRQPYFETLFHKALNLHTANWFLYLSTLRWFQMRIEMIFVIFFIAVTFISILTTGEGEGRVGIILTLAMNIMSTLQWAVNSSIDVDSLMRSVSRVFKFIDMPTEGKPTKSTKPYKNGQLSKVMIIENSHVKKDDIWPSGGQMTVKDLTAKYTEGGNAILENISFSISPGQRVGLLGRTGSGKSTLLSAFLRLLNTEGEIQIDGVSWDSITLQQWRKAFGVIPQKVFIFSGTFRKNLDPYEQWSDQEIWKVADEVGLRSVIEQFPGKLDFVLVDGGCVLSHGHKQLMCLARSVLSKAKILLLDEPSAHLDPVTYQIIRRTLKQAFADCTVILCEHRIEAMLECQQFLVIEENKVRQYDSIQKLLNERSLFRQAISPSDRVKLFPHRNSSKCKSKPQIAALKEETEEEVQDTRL

Molecules are shown by their SMILES.

As for `O=C(CNc1ccc2ccccc2c1)NN=Cc1cc(Br)c(O)c(Br)c1O` [GlyH-101], the inhibition at 50 µM at SLC26A9 amounted to 71 ± 4%; at wtCFTR (read-out: % inhibition (GlyH-101, 50 μM)), 90 ± 2%.

For `COc1ccc(Cl)cc1C(=O)NCCc1ccc(S(=O)(=O)NC(=O)NC2CCCCC2)cc1` [glibenclamide], the inhibition at 100 µM at wtCFTR (read-out: % inhibition (glibenclamide, 100 μM)) is 52 ± 10%.

The values are drawn from paper PMC2664976 (The Journal of General Physiology, 2009).
